These results are taken from US20250195530A1, “POLQ INHIBITORS” (ASTRAZENECA AB, priority 2022, published 2025).

One assay concerns DLD-1 BRCA2−/− cells. The experiment in a line: Homologous recombination synthetic lethal inhibition of proliferation, DLD-1 BRCA2-/- (Cell Titre Glo 3D). It is filed as cell-based. As to conditions: for IC50: Homo sapiens. Summed up: (§1)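 Read-out: CellTiter-Glo 3D luminescence, day 7 for wt DLD-1, day 12 for BRCA2−/−, about 8-9 population doublings each. Seeding 1,500 or 3,000 cells/mL respectively. Dose range 10 μM–0.51 nM, 3-fold, 10 points, with re-dosing on day 6. IC50 from curve fit.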

The test system of the next assay is DLD-1 cells. The experiment in a line: Inhibition of proliferation, DLD-1 BRCA2 wt control (Cell Titre Glo 3D). As to conditions: for IC50: Homo sapiens. It is filed as cell-based. Summed up:
as §1

[1] abbreviates: DLD-1, first proliferation column (c5), DLD-1 BRCA2-/-, read-out: POLQ PD Prolif Lumin (converted).
[2] abbreviates: DLD-1, second proliferation column (c6), DLD-1 BRCA2 wt control, read-out: POLQ PD Prolif Lumin (converted).
Setting [3] is: DLD-1, DLD-1 BRCA2 −/−, mean, read-out: POLQ PD Prolif Lumin BRCA2 −/− mean pIC50 (converted).
Where [4] appears, read: DLD-1, DLD1 BRCA2 wt, mean, read-out: POLQ PD Prolif Lumin DLD1 mean pIC50 (converted).
Setting [5] is: DLD-1, first proliferation column (c5), taken as DLD-1 BRCA2-/-, read-out: POLQ PD Prolif Lumin (converted).
Where [6] appears, read: DLD-1, second proliferation column (c6), taken as DLD-1 BRCA2 wt, read-out: POLQ PD Prolif Lumin (converted).
Setting [7] is: DLD-1, 288 h, DLD-1 BRCA2−/− cells, 12 days, read-out: POLQ PD Prolif Lumin BRCA2 −/− mean pIC50 (converted).
Setting [8] is: DLD-1, 168 h, DLD-1 BRCA2 wt cells, 7 days, read-out: POLQ PD Prolif Lumin DLD1 mean pIC50 (converted).
Setting [9] is: DLD-1, proliferation, luminescence, taken as DLD-1 BRCA2-/-, read-out: POLQ PD Prolif Lumin (converted).
The mark [10] stands for this setting: DLD-1, proliferation, luminescence, second Prolif column (c6), taken as DLD-1 BRCA2 wt control, read-out: POLQ PD Prolif Lumin (converted).

Like-named read-outs stand apart in the source and are kept apart here.

On to `Cc1cnc(Cn2c(-c3ccc(OC4CCNCC4)cc3Cl)nc3c(OC4(C)CC4)ncnc32)s1` [Example T138, 2-((8-(2-chloro-4-(piperidin-4-yloxy)phenyl)-6-(1-methylcyclopropoxy)-9H-purin-9-yl)methyl)-5-methylthiazole], for which the IC50 is 501 nM in the assay on DLD-1 BRCA2−/− cells (setting [1]) and more than 10000 nM in the assay with DLD-1 cells (setting [2]).
`COc1ccc(Cl)cc1Cn1c(-c2cccc(OCCCOC(C)(C)C(=O)O)c2Cl)nc2c(OC3(C)CC3)ncnc21` [Example U90, 2-(3-(2-chloro-3-(9-(5-chloro-2-methoxybenzyl)-6-(1-methylcyclopropoxy)-9H-purin-8-yl)phenoxy)propoxy)-2-methylpropanoic acid]: the IC50 is 5.01 nM in the assay on DLD-1 BRCA2−/− cells (setting [3]) and more than 10000 nM with DLD-1 cells (setting [4]).
On to `CC1(Oc2ncnc3c2nc(-c2ccc(OCCN4CCNCC4)cc2Cl)n3Cc2nccc(Cl)c2F)CC1` [Example T345, 9-((4-chloro-3-fluoropyridin-2-yl)methyl)-8-(2-chloro-4-(2-(piperazin-1-yl)ethoxy)phenyl)-6-(1-methylcyclopropoxy)-9H-purine], for which the IC50 in the assay on DLD-1 BRCA2−/− cells (setting [5]) is 794 nM; in the assay with DLD-1 cells (setting [6]) it was 10000 nM.
On to `CC1(Oc2ncnc3c2nc(-c2ccc(CC(N)=O)cc2Cl)n3Cc2cc(Cl)ccn2)CC1` [Example 38, 2-(3-Chloro-4-(9-((4-chloropyridin-2-yl)methyl)-6-(1-methylcyclopropoxy)-9H-purin-8-yl)phenyl)acetamide], for which the IC50 with DLD-1 BRCA2−/− cells (DLD-1, 288 h, DLD-1 BRCA2−/−, 12 days, Cell Titre Glo 3D, read-out: POLQ PD Prolif Lumin BRCA2 −/− Mean pIC50 (converted)) was 398 nM; with DLD-1 cells (DLD-1, 168 h, DLD-1 (BRCA2 wt control), 7 days, Cell Titre Glo 3D, read-out: POLQ PD Prolif Lumin DLD1 Mean pIC50 (converted)), more than 10000 nM.
Turning to `CC1(Oc2ncnc3c2nc(-c2ccc(OCCCOCC(=O)O)cc2Cl)n3Cc2cccc(Cl)c2)CC1` [Example T302, 2-(3-(3-chloro-4-(9-(3-chlorobenzyl)-6-(1-methylcyclopropoxy)-9H-purin-8-yl)phenoxy)propoxy)acetic acid], the figures for the IC50 in the assay with DLD-1 BRCA2−/− cells (setting [5]) and with DLD-1 cells (setting [6]) were 316 nM and more than 10000 nM, respectively.
As to `Cc1cc(N2CC(N)C2)ncc1-c1nc2c(OC3(C)CC3)ncnc2n1Cc1ccccc1` [Example 19, 1-(5-(9-Benzyl-6-(1-methylcyclopropoxy)-9H-purin-8-yl)-4-methylpyridin-2-yl)azetidin-3-amine], the IC50 in the assay on DLD-1 BRCA2−/− cells (setting [7]) is 501 nM; in the assay on DLD-1 cells (setting [8]), more than 10000 nM.
On the same counts, the results for `Cc1cc(OCCN(C)C)ncc1-c1nc2c(OC3(C)CC3)ncnc2n1Cc1ccccc1` [Example G12, 2-((5-(9-benzyl-6-(1-methylcyclopropoxy)-9H-purin-8-yl)-4-methylpyridin-2-yl)oxy)-N,N-dimethylethan-1-amine] are 316 nM and more than 10000 nM.
`Cc1ccnc(Cn2c(-c3ccc(OCCN4CCNCC4)cc3Cl)nc3c(OC4(C)CC4)ncnc32)c1C` [Example T597, 8-(2-chloro-4-(2-(piperazin-1-yl)ethoxy)phenyl)-9-((3,4-dimethylpyridin-2-yl)methyl)-6-(1-methylcyclopropoxy)-9H-purine]: the IC50 in the assay with DLD-1 BRCA2−/− cells (DLD-1, first proliferation column, DLD-1 BRCA2-/-, read-out: POLQ PD Prolif Lumin (converted)) was 2510 nM; in the assay on DLD-1 cells (DLD-1, second proliferation column, DLD-1 BRCA2 wt control, read-out: POLQ PD Prolif Lumin (converted)), 6310 nM.
Regarding `CC(C)Oc1ccc2c(c1)nc(-c1ccc(OCCC3CCCN3C)cc1Cl)n2Cc1ccccc1` (single isomer, unassigned) [Example A9, 1-benzyl-2-(2-chloro-4-(2-(1-methylpyrrolidin-2-yl)ethoxy)phenyl)-5-isopropoxy-1H-benzo[d]imidazole], the “POLQ PD Prolif Lumin BRCA2 −/− mean pIC50” value in the assay with DLD-1 BRCA2−/− cells (DLD-1 BRCA2−/− cells, 12 days) is 6.7. Moreover, the “POLQ PD Prolif Lumin DLD1 mean pIC50” value in the assay with DLD-1 cells (DLD-1 BRCA2 wt cells, 7 days) is on record as 6.3.
On to `CC1(Oc2ncnc3c2nc(-c2cccc(OC(C)(C)C(=O)O)c2Cl)n3Cc2cccc(Cl)c2)CC1` [Example T158, 2-(2-chloro-3-(9-(3-chlorobenzyl)-6-(1-methylcyclopropoxy)-9H-purin-8-yl)phenoxy)-2-methylpropanoic acid], for which the IC50 with DLD-1 BRCA2−/− cells (setting [1]) and in the assay on DLD-1 cells (setting [2]) was more than 10000 nM in each case.
Regarding `CC(=O)COc1ccc(-c2nc3c(OC4(C)CC4)ncnc3n2Cc2cc(C)ccn2)c(Cl)c1` [Example T104, 1-(3-chloro-4-(6-(1-methylcyclopropoxy)-9-((4-methylpyridin-2-yl)methyl)-9H-purin-8-yl)phenoxy)propan-2-one], the IC50 in the assay with DLD-1 BRCA2−/− cells (setting [1]) is 200 nM; in the assay on DLD-1 cells (setting [2]), more than 10000 nM.
Take `C[C@H](CCOc1ccc(-c2nc3c(OC4(C)CC4)ncnc3n2Cc2cc(Cl)ccc2C#N)c(Cl)c1)C(=O)O` [Example U81, (R)-4-(3-chloro-4-(9-(5-chloro-2-cyanobenzyl)-6-(1-methylcyclopropoxy)-9H-purin-8-yl)phenoxy)-2-methylbutanoic acid]: the IC50 in the assay on DLD-1 BRCA2−/− cells (setting [3]) is 20 nM; with DLD-1 cells (setting [4]), more than 10000 nM.
On to `CN1CCN(CCOc2ccc(-c3nc4c(OC5(C)CC5)ncnc4n3Cc3ccccc3Cl)c(Cl)c2)CC1` [Example E1, 8-(2-chloro-4-(2-(4-methylpiperazin-1-yl)ethoxy)phenyl)-9-(2-chlorobenzyl)-6-(1-methylcyclopropoxy)-9H-purine], for which the IC50 with DLD-1 BRCA2−/− cells (setting [7]) was 31.6 nM; with DLD-1 cells (setting [8]) it was 2510 nM.
Take `Cc1ccnc(Cn2c(-c3ccc(C(=O)N4CCC(F)CC4)cc3Cl)nc3c(OC4(C)CC4)ncnc32)c1` [Example T419, (3-chloro-4-(6-(1-methylcyclopropoxy)-9-((4-methylpyridin-2-yl)methyl)-9H-purin-8-yl)phenyl)(4-fluoropiperidin-1-yl)methanone]: the IC50 in the assay with DLD-1 BRCA2−/− cells (setting [9]) is 1000 nM; with DLD-1 cells (setting [10]), more than 10000 nM.
As for `CC(C)Oc1ccc2c(c1)nc(-c1ccc(OC3CCCN(C)CC3)cc1Cl)n2Cc1ccccc1` (single isomer, unassigned) [Example A11, 1-benzyl-2-(2-chloro-4-((1-methylazepan-4-yl)oxy)phenyl)-5-isopropoxy-1H-benzo[d]imidazole], the “POLQ PD Prolif Lumin BRCA2 −/− mean pIC50” value in the assay with DLD-1 BRCA2−/− cells (DLD-1 BRCA2−/− cells, 12 days) is recorded as 6.1. In addition, the “POLQ PD Prolif Lumin DLD1 mean pIC50” value in the assay with DLD-1 cells (DLD-1 BRCA2 wt cells, 7 days) was determined as 5.8.
On to `C[C@H](CCOc1cccc(-c2nc3c(OC4(C)CC4)ncnc3n2Cc2cc(Cl)ccc2C#N)c1Cl)C(=O)O` [Example U95, (R)-4-(2-chloro-3-(9-(5-chloro-2-cyanobenzyl)-6-(1-methylcyclopropoxy)-9H-purin-8-yl)phenoxy)-2-methylbutanoic acid], for which the results for the IC50 with DLD-1 BRCA2−/− cells (setting [3]) and in the assay with DLD-1 cells (setting [4]) were 2 nM and more than 10000 nM, respectively.
Turning to `Cc1c(OCCN2CCNCC2)cncc1-c1nc2c(OC3(C)CC3)ncnc2n1Cc1ccccc1` [Example 22, 9-Benzyl-8-(4-methyl-5-(2-(piperazin-1-yl)ethoxy)pyridin-3-yl)-6-(1-methylcyclopropoxy)-9H-purine], the IC50 with DLD-1 BRCA2−/− cells (setting [7]) is 631 nM; in the assay with DLD-1 cells (setting [8]), more than 10000 nM.
For `CC1(Oc2ncnc3c2nc(-c2ccc(OCC(=O)N4CCNCC4)cc2Cl)n3Cc2ccccc2)CC1` [Example C8, 2-(4-(9-benzyl-6-(1-methylcyclopropoxy)-9H-purin-8-yl)-3-chloro-phenoxy)-1-(piperazin-1-yl)ethan-1-one], in that order: 316 nM and 6310 nM.
On the same counts, the results for `C[C@H]1CN(CCOc2ccc(-c3nc4c(OC5(C)CC5)ncnc4n3Cc3ccccc3)c(Cl)c2)CCN1` [Example R3, (S)-9-benzyl-8-(2-chloro-4-(2-(3-methylpiperazin-1-yl)ethoxy)phenyl)-6-(1-methylcyclopropoxy)-9H-purine] are 63.1 nM and 3160 nM.
For `CC1(Oc2cccc3c2nc(-c2ccc(OCCC(=O)O)cc2Cl)n3Cc2cccc(Cl)c2)CCC1` [Example T406, 3-(3-chloro-4-(1-(3-chlorobenzyl)-4-(1-methylcyclobutoxy)-1H-benzo[d]imidazol-2-yl)phenoxy)propanoic acid], the IC50 in the assay on DLD-1 BRCA2−/− cells (setting [9]) is 2000 nM; with DLD-1 cells (setting [10]), more than 10000 nM.
In the case of `COc1ccc(Cl)cc1Cn1c(-c2ccc(OCCC(C)(C)C(=O)O)cc2Cl)nc2c(OC3(C)CC3)ncnc21` [Example U31, 4-(3-chloro-4-(9-(5-chloro-2-methoxybenzyl)-6-(1-methylcyclopropoxy)-9H-purin-8-yl)phenoxy)-2,2-dimethylbutanoic acid], the IC50 is 50.1 nM in the assay on DLD-1 BRCA2−/− cells (setting [3]) and more than 7940 nM in the assay with DLD-1 cells (setting [4]).
Turning to `CC1(Oc2ncnc3c2nc(-c2ccc(OCCCN4CC[C@@H](O)C4)cc2Cl)n3Cc2cc(Cl)ccn2)CC1` [Example T502, (R)-1-(3-(3-chloro-4-(9-((4-chloropyridin-2-yl)methyl)-6-(1-methylcyclopropoxy)-9H-purin-8-yl)phenoxy)propyl)pyrrolidin-3-ol], the values for the IC50 with DLD-1 BRCA2−/− cells (setting [1]) and in the assay on DLD-1 cells (setting [2]) were 126 nM and more than 7940 nM, respectively.
As for `CC1(Oc2ncnc3c2nc(-c2ccc(N4CCNC(=O)C4)cc2Cl)n3Cc2ccccc2)CC1` [Example M3, 4-(4-(9-benzyl-6-(1-methylcyclopropoxy)-9H-purin-8-yl)-3-chlorophenyl)piperazin-2-one], the figures for the IC50 in the assay with DLD-1 BRCA2−/− cells (setting [7]) and in the assay on DLD-1 cells (setting [8]) were 501 nM and 7940 nM, respectively.
